# From patent US7670991B2, “Substituted benzoylcyclohexenones and their use as herbicidal agents” (Bayer CropScience AG, priority 2001, dated 2010)
# Experiment: log P by reversed-phase HPLC (C 18), acidic range
# Type: physicochemical
# Settings: marked a): acidic range, 0.1% aqueous phosphoric acid, acetonitrile; HPLC reversed-phase column (C 18); 43° C.
# Protocol: Temperature: 43° C. (a) Mobile phases for the determination in the acidic range: 0.1% aqueous phosphoric acid, acetonitrile; linear gradient from 10% acetonitrile to 90% acetonitrile—the corresponding measurement results are marked ^a) in Table 1.
row,logP,SMILES
1,(I-2) logP = 2.33^a),CON(C)C(=O)Nc1c(Cl)ccc(C(=O)C2=C(O)CC(C)CC2=O)c1Cl (racemic) [Example 3-1]
2,(I-2) logP = 2.25^a),CC1CC(=O)C(C(=O)c2ccc(Cl)c(NC(=O)N3CCCO3)c2Cl)=C(O)C1 (racemic) [Example 3-61]
3,(I-2) logP = 2.52^a),CC1CC(=O)C(C(=O)c2ccc(Cl)c(NC(=O)N3CCCCO3)c2Cl)=C(O)C1 (racemic) [Example 3-69]
4,(I-2) logP = 2.61^a),CON(C)C(=O)Nc1c(Cl)ccc(C(=O)C2=C(O)C(C)(C)CCC2=O)c1Cl [Example 2-1]
5,(I-2) logP = 2.57^a),CC1(C)CCC(=O)C(C(=O)c2ccc(Cl)c(NC(=O)N3CCCO3)c2Cl)=C1O [Example 2-61]
6,(I-2) logP = 2.83^a),CC1(C)CCC(=O)C(C(=O)c2ccc(Cl)c(NC(=O)N3CCCCO3)c2Cl)=C1O [Example 2-69]

# Same assay, conditions: marked a): acidic range, 0.1% aqueous phosphoric acid/acetonitrile gradient, HPLC C 18, 43° C.
row,logP,SMILES
1,(I-2) logP = 2.21^a),CCN(CC)C(=O)Nc1c(Cl)ccc(C(=O)C2=C(O)CCCC2=O)c1Cl [Example 1-7]
2,(I-2) logP = 1.46^a),CNC(=O)Nc1c(Cl)ccc(C(=O)C2=C(O)CCCC2=O)c1Cl [Example 1-8]
3,(I-2) logP = 1.70^a),CCNC(=O)Nc1c(Cl)ccc(C(=O)C2=C(O)CCCC2=O)c1Cl [Example 1-9]
4,(I-2) logP = 1.64^a),CN(C)C(=O)Nc1c(Cl)ccc(C(=O)C2=C(O)CCCC2=O)c1Cl [Example 1-10]
5,(I-2) logP = 1.99^a),CC(C)NC(=O)Nc1c(Cl)ccc(C(=O)C2=C(O)CCCC2=O)c1Cl [Example 1-12]
6,(I-2) logP = 1.77^a),O=C(Nc1c(Cl)ccc(C(=O)C2=C(O)CCCC2=O)c1Cl)NC1CC1 [Example 1-13]
7,(I-2) logP = 1.90^a),O=C1CCCC(O)=C1C(=O)c1ccc(Cl)c(NC(=O)N2CCCC2)c1Cl [Example 1-16]
8,(I-2) logP = 2.65^a),CCN1CCCN(C(=O)Nc2c(Cl)ccc(C(=O)C3=C(O)CCCC3=O)c2Cl)C1=O [Example 1-23]
9,(I-2) logP = 2.98^a),CC(C)N1CCCN(C(=O)Nc2c(Cl)ccc(C(=O)C3=C(O)CCCC3=O)c2Cl)C1=O [Example 1-25]
10,(I-2) logP = 1.81^a),O=C(NCC1CCCO1)Nc1c(Cl)ccc(C(=O)C2=C(O)CCCC2=O)c1Cl (stereo not shown) [Example 1-33]
11,(I-2) logP = 1.72^a),COC(CNC(=O)Nc1c(Cl)ccc(C(=O)C2=C(O)CCCC2=O)c1Cl)OC [Example 1-35]
12,(I-2) logP = 2.78^a),O=C(Nc1nnc(C(F)(F)F)s1)Nc1c(Cl)ccc(C(=O)C2=C(O)CCCC2=O)c1Cl [Example 1-40]
13,(I-1) logP = 2.57^a),CN1CCN(C(=O)Nc2cc(C(F)(F)F)ccc2C(=O)C2=C(O)CCCC2=O)C1=O [Example 1-100]
14,(I-2) logP = 1.94^a),O=C(Nc1c(Cl)ccc(C(=O)C2=C(O)CCCC2=O)c1Cl)NN1CCCC1 [Example 1-101]
15,(I-2) logP = 3.86^a),O=C1CCCC(O)=C1C(=O)c1ccc(Cl)c(NC(=O)N2CCCN(C3CCCCC3)C2=O)c1Cl [Example 1-103]
16,(I-1) logP = 2.04^a),CN1CCN(C(=O)N(C)c2cc(C(F)(F)F)ccc2C(=O)C2=C(O)CCCC2=O)C1=O [Example 1-104]
17,(I-2) logP = 2.26^a),O=C1CCCC(O)=C1C(=O)c1ccc(Cl)c(NC(=O)N2CCCCC2)c1Cl [Example 1-105]
18,(I-2) logP = 1.29^a),NC(=O)Nc1c(Cl)ccc(C(=O)C2=C(O)CCCC2=O)c1Cl [Example 1-106]
19,(I-2) logP = 1.98^a),CCCNC(=O)Nc1c(Cl)ccc(C(=O)C2=C(O)CCCC2=O)c1Cl [Example 1-107]
20,(I-2) logP = 1.58^a),CONC(=O)Nc1c(Cl)ccc(C(=O)C2=C(O)CCCC2=O)c1Cl [Example 1-108]
21,(I-2) logP = 2.95^a),CCCN(CCC)C(=O)Nc1c(Cl)ccc(C(=O)C2=C(O)CCCC2=O)c1Cl [Example 1-109]
22,(I-3) logP = 1.93^a),COc1cc(NC(=O)N2CCN(C)C2=O)ccc1C(=O)C1=C(O)CCCC1=O [Example 1-110]
23,(I-2) logP = 2.34^a),O=C1CCCC(O)=C1C(=O)c1ccc(Cl)c(NC(=O)c2cccs2)c1Cl [Example 1-111]

row,logP,SMILES
1,(I-2) logP = 2.04^a),COCCN(C)C(=O)Nc1c(Cl)ccc(C(=O)C2=C(O)CCCC2=O)c1Cl [Example 1-132]
2,(I-2) logP = 2.40^a),COCCN(CCOC)C(=O)Nc1c(Cl)ccc(C(=O)C2=C(O)CCCC2=O)c1Cl [Example 1-134]
3,(I-2) logP = 1.88^a),CCONC(=O)Nc1c(Cl)ccc(C(=O)C2=C(O)CCCC2=O)c1Cl [Example 1-136]
4,(I-2) logP = 2.37^a),O=C(NCc1ccccc1)Nc1c(Cl)ccc(C(=O)C2=C(O)CCCC2=O)c1Cl [Example 1-142]
5,(I-2) logP = 2.02^a),O=C1CCCC(O)=C1C(=O)c1ccc(Cl)c(NC(=O)C2=NOCC2)c1Cl [Example 1-145]
6,(I-2) logP = 2.08^a),O=C1CCCC(O)=C1C(=O)c1ccc(Cl)c(NC(=O)c2ccco2)c1Cl [Example 1-147]
7,(I-2) logP = 2.96^a),O=C1CCCC(O)=C1C(=O)c1ccc(Cl)c(NC(=O)c2ccc(Cl)cc2)c1Cl [Example 1-150]
8,(I-2) logP = 1.93^a),O=C1CCCC(O)=C1C(=O)c1ccc(Cl)c(NC(=O)N2CCCO2)c1Cl [Example 1-151]
9,(I-2) logP = 2.28^a),CON(C)C(=S)Nc1c(Cl)ccc(C(=O)C2=C(O)CCCC2=O)c1Cl [Example 1-159]
10,(I-2) logP = 2.52^a),O=C(Nc1c(Cl)ccc(C(=O)C2=C(O)CCCC2=O)c1Cl)NN1CCCCC1 [Example 1-160]
11,(I-2) Y = SC6H5 logP = 2.98^a),CON(C)C(=O)Nc1c(Cl)ccc(C(=O)C2=C(Sc3ccccc3)CCCC2=O)c1Cl [Example 1-161]
12,(I-2) logP = 1.96^a),Cn1ccsc1=NC(=O)Nc1c(Cl)ccc(C(=O)C2=C(O)CCCC2=O)c1Cl [Example 1-162]
13,(I-2) logP = 2.22^a),CCn1ccsc1=NC(=O)Nc1c(Cl)ccc(C(=O)C2=C(O)CCCC2=O)c1Cl [Example 1-163]
14,(I-2) logP = 2.17^a),O=C1CCCC(O)=C1C(=O)c1ccc(Cl)c(NC(=O)N2CCCCO2)c1Cl [Example 1-164]
15,(I-2) logP = 2.56^a),CCCN(CC)C(=O)Nc1c(Cl)ccc(C(=O)C2=C(O)CCCC2=O)c1Cl [Example 1-165]
16,(I-2) logP = 2.17^a),CC(C)N(C)C(=O)Nc1c(Cl)ccc(C(=O)C2=C(O)CCCC2=O)c1Cl [Example 1-166]
17,(I-2) logP = 2.30^a),CCON(C)C(=O)Nc1c(Cl)ccc(C(=O)C2=C(O)CCCC2=O)c1Cl [Example 1-167]
18,(I-2) logP = 2.41^a),CC(C)(C)NC(=O)Nc1c(Cl)ccc(C(=O)C2=C(O)CCCC2=O)c1Cl [Example 1-168]
19,(I-2) logP = 2.49^a),CCN(C(=O)Nc1c(Cl)ccc(C(=O)C2=C(O)CCCC2=O)c1Cl)C(C)C [Example 1-169]
20,(I-2) logP = 1.91^a),CCN(C)C(=O)Nc1c(Cl)ccc(C(=O)C2=C(O)CCCC2=O)c1Cl [Example 1-170]
21,(I-2) logP = 2.05^a),O=C(NCC1CC1)Nc1c(Cl)ccc(C(=O)C2=C(O)CCCC2=O)c1Cl [Example 1-171]
22,(I-2) logP = 1.72^a),COCCCNC(=O)Nc1c(Cl)ccc(C(=O)C2=C(O)CCCC2=O)c1Cl [Example 1-172]
23,(I-2) logP = 2.22^a),CCCN(C)C(=O)Nc1c(Cl)ccc(C(=O)C2=C(O)CCCC2=O)c1Cl [Example 1-173]
